{"source": "patent US6579857B1", "about": "“Combination cancer therapy comprising adenosine and deaminase enzyme inhibitors” (Evanston Northwestern Healthcare Research Institute, priority 1999, dated 2003)", "key": {"[1]": {"system": "two cultured human colon carcinoma cell lines and Chinese hamster ovary (CHO K-I) cells", "conditions": "cited from earlier work; for toxicity when used alone: deoxycoformycin .001 to 1 μM, 2′-deoxyadenosine 0 to 500 μM"}, "neuronal cell": {"system": "neuronal cell", "conditions": "dose-dependent; cited from earlier work"}, "[2]": {"system": "OVCAR3 ovarian cancer cells", "test": "MTT cell viability assay, OVCAR3", "conditions": "for viability at 10 µM: Homo sapiens, OVCAR-3, 60 h, read-out: cell viability as a percentage of control", "procedure": "For the experiments MCF7 breast cancer cells and OVCAR3 ovarian cancer cells (both obtained from the American Type Culture Collection (ATCC), Manassas, Va.) were cultured in RPMI 1640 media containing 10% fetal calf serum (Life Technologies, Gaithersburg, Md.). After 24 hours of culturing at 37° C. in 5% CO2, additional medium was added containing either adenosine (final concentration 10 μM), coformycin (final concentration 10 μM), or 10 μM each of adenosine and coformycin. Additional media alone was added to control cultures.\nThe cells were cultured in these chemotherapeutic media for an additional 60 hours, at which time the viability of the cells were determined using an MTT assay (Celltitre 98 Aqueous 1, Promega, Madison, Wis.).\nThe OVCAR3 ovarian cancer cell line was cultured as described in Example 1 for 24 hours and then treated with either 5 μM (final concentration) dipyridimole alone; 10 μM adenosine plus 10 μM coformycin alone; or the combination of these two treatments. In a control sample, culture media alone was added. The cultures were grown for an additional 60 hours and then analyzed for cell growth.\nThe same experiments were repeating using 5 μM (final concentration) 5′-amino-5′-deoxyadenosine alone; 5 μM adenosine plus 10 μM coformycin alone; or the combination of these two treatments.\nThe procedures described in Example 1 were repeated using the OVCAR 3 ovarian cancer cell line, and using as therapeutic agents 10 μM coformycin in combination with 10 μM of either adenosine, 2-chloroadenosine, 8-chloroadenosine, or 8-chloro-cAMP."}, "MCF7 breast cancer cells": {"system": "MCF7 breast cancer cells", "test": "MTT cell viability assay, MCF7", "type": "cell-based", "conditions": "Homo sapiens, read-out: cell viability as a percentage of control", "procedure": "(§1) Additional media alone was added to control cultures."}, "mouse melanoma cells": {"system": "mouse melanoma cells", "conditions": "cited from earlier work"}, "lymphoid cells": {"system": "lymphoid cells", "conditions": "cited from earlier work"}, "fibroblasts": {"system": "fibroblasts", "conditions": "cited from earlier work"}, "[3]": {"system": "cell lines OVCAR 3, OVCAR 5, MCF7, and HT 29", "test": "Adenosine with CF or dCF, tumor cell toxicity assay (Example 4)", "type": "cell-based", "conditions": "5 μM adenosine with 5 μM CF or 5 μM dCF; 60 hours", "procedure": "as §1\nThe procedures described in Example 1 were repeated using cell lines OVCAR 3, OVCAR 5, MCF7, and HT 29 and using 5 μM adenosine in combination with either 5 μM CF or 5 μM dCF as the therapeutic combination of agents."}, "[4]": {"biological_target": "T1, adenosine deaminase (ADA) (Homo sapiens, UniProt P00813)", "T1 sequence (P00813 1-363)": "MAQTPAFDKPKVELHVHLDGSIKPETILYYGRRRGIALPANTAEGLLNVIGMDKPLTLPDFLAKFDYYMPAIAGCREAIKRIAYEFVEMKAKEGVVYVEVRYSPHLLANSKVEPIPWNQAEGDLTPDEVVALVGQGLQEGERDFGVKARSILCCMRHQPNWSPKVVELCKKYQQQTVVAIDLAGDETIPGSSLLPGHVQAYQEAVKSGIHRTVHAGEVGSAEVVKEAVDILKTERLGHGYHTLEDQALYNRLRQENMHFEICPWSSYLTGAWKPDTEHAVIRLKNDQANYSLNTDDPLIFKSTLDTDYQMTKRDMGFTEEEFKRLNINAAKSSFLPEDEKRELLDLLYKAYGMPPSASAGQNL", "conditions": "Cha et al. 1975; Agarwal et al. 1977; cited from earlier work"}, "AMPDA": {"system": "AMPDA", "conditions": "CF versus dCF; cited from earlier work"}}, "note": "pKi: −log10 of the molar value. Where two headings read alike, the source gives them in different places."}
{"smiles": "Nc1ncnc2c1ncn2[C@H]1C[C@H](O)[C@@H](CO)O1", "note": "[2′-deoxyadenosine]", "values": [{"measurement": "toxicity when used alone", "setting": "[1]", "value": "Neither compound was reported to be toxic when used alone"}, {"measurement": "concentration required to approach full cell growth inhibition", "setting": "[1]; in combination with deoxycoformycin", "value": "50 to 150", "unit": "µM"}, {"measurement": "concentration of maximal neuronal cell toxicity", "setting": "neuronal cell", "value": 300, "unit": "µM"}]}
{"smiles": "NC[C@H]1O[C@@H](n2cnc3c(N)ncnc32)[C@H](O)[C@@H]1O", "note": "[5′-amino-5′-deoxyadenosine]", "values": [{"measurement": "block of toxic effects of Ado/CF combination", "setting": "[2]; OVCAR3, 5 μM 5′-amino-5′-deoxyadenosine + 5 μM adenosine + 10 μM coformycin, 60 hours", "value": "essentially completely block"}, {"measurement": "cell growth, agent alone", "setting": "[2]; OVCAR3, 5 μM 5′-amino-5′-deoxyadenosine alone, 60 hours", "value": "~80 % of control"}]}
{"smiles": "Nc1ncnc2c1ncn2[C@@H]1O[C@H](CO)[C@@H](O)[C@H]1O", "note": "[adenosine]", "values": [{"measurement": "viability at 10 µM", "setting": "MCF7 breast cancer cells; MCF7, 10 μM final concentration of each agent, 60 hours", "value": "> 100", "unit": "%"}, {"measurement": "viability at 10 µM", "setting": "[2]", "value": "> 100", "unit": "%"}, {"measurement": "concentration giving 80% growth inhibition", "setting": "mouse melanoma cells", "value": 50, "unit": "µM"}, {"measurement": "concentration required for similar (80%) growth inhibition", "setting": "lymphoid cells", "value": 5, "unit": "µM"}, {"measurement": "concentration required for similar (80%) growth inhibition", "setting": "fibroblasts", "value": 400, "unit": "µM"}]}
{"smiles": "OC[C@H]1O[C@@H](n2cnc3c2N=CNC[C@H]3O)[C@H](O)[C@@H]1O", "note": "[coformycin]", "values": [{"measurement": "viability at 10 µM", "setting": "MCF7 breast cancer cells; MCF7, 60 h", "value": "> 100", "unit": "%"}, {"measurement": "viability at 10 µM", "setting": "[2]", "value": "> 100", "unit": "%"}, {"measurement": "potentiation of adenosine toxicity", "setting": "[3]", "value": "consistently potentiated to toxicity of the adenosine to a greater extent than the deoxycoformycin"}, {"measurement": "pKi", "setting": "[4]", "value": 10.60}, {"measurement": "fold more potent inhibitor of AMPDA", "setting": "AMPDA", "value": 50, "unit": "fold"}]}
{"smiles": "OC[C@H]1O[C@@H](n2cnc3c2NC=NC[C@H]3O)C[C@@H]1O", "note": "[deoxycoformycin]", "values": [{"measurement": "toxicity when used alone", "setting": "[1]", "value": "Neither compound was reported to be toxic when used alone"}]}
{"smiles": "OCCN(CCO)c1nc(N2CCCCC2)c2nc(N(CCO)CCO)nc(N3CCCCC3)c2n1", "note": "[dipyridamole]", "values": [{"measurement": "cell growth with protective agent added to Ado/CF", "setting": "[2]; OVCAR3, 5 μM dipyridimole + 10 μM adenosine + 10 μM coformycin, 60 hours", "value": "approximating that of the untreated control"}, {"measurement": "cell growth as percentage of the control", "setting": "[2]; OVCAR3, 5 μM dipyridimole alone or 10 μM adenosine plus 10 μM coformycin alone, 60 hours", "value": "comparable to the control"}]}
